Experiments:
H1299 cells = assay: TGF-β1-induced EMT experiment (morphology), H1299 cells; assay type: cell-based, human; details: Scr H1299 cells, TGF-β1
Excerpt: Fig. 4 Silencing NatD suppresses cancer cell EMT by downregulating Slug. a Representative phase contrast images of Scr and NatD-KD H1299 cells treated with TGF-β1. Data are representative of three independent experiments. Scale bar, 100 μm. b Quantitative real-time PCR analysis of mRNA levels of indicated key EMT-related genes in Scr and NatD-KD H1299 cells normalized to GAPDH in the absence or presence of TGF-β1. Results are shown as mean ± s.d. of three independent experiments. Two-tailed Student’s t-test was used. **P < 0.01 or *P < 0.05 compared with the indicated control. c Western blot analysis of indicated protein levels in Scr and NatD-KD H1299 cells in the absence or presence of TGF-β1. GAPDH served as a loading control. Data are representative of three independent experiments. d Immunofluorescence analysis of Scr and NatD-KD H1299 cells in the absence or presence of TGF-β1 stained for E-cadherin and N-cadherin. […] (bottom panels) Cells were counted in at least four random microscope fields (×100 magnification) for the corresponding assays; migration and invasion are expressed as a percentage of control. […] Two-tailed Student’s t-test was used. **P < 0.01 compared with the indicated control. g Quantitative real-time PCR analysis of the mRNA levels of NatD and indicated key EMT-related genes (normalized to GAPDH) in Scr cells, NatD-KD cells, and NatD-KD + Slug cells. […]

CK2α = assay: Slug expression after CK2α RNA interference, H1299 cells; assay type: cell-based, human; details: Scr and NatD-KD H1299 cells, particularly in NatD-KD cells
Excerpt: Fig. 7 Downregulation of Nt-acetylation of histone H4 facilitates nuclear accumulation of CK2α and its binding to histone H4 in lung cancer cells. a Representative confocal scanning images of CK2α localization in Scr and H1299 cells (left panel). The staining intensity of CK2α was quantified by software ImageJ from NIH (right diagram). Scale bars, 5 μm. […] Equal peptide biotinylated on C terminus is shown by dot blot analysis with streptavidin (middle panel). […] IgG served as a negative control. Results are shown as mean ± s.d. from three independent experiments; two-tailed Student’s t-test, **P < 0.01 compared with the indicated control. g Quantitative real-time PCR analysis of mRNA levels of CK2α and Slug normalized to GAPDH in Scr and NatD-KD H1299 cells in the absence or presence of siRNA to CK2α. NC, siRNA mimics negative control. Data are mean ± s.d. of three independent experiments; Student’s t-test, *P < 0.05, **P < 0.01 compared with the indicated control. h Western blot analysis of indicated proteins from Scr and NatD-KD H1299 cells in the absence or presence of siRNA to CK2α.
siRNA against CK2α and negative control (NC) siRNA were synthesized by RiboBio Co. Ltd (Gaungzhou, China).

Substance | morphology on TGF-β1 treatment, Scr cells (H1299 cells) | Slug expression after CK2α knockdown (CK2α) | Slug expression after CK2α knockdown (CK2α; listed as knockdown of CK2α by RNA interference)
TGF-β1: TGF-β1 used to induce EMT [reference compound] | developed a spindle-like appearance and mesenchymal morphology |  | 
CK2α siRNA: siRNA against CK2α: 5′-GAAUUAGAUCCACGUUUCA-3′ (chemistry not given here) |  | greatly activated | significantly increased

Reference: article PMC5640650, “NatD promotes lung cancer progression by preventing histone H4 serine phosphorylation to activate Slug expression” (Nature Communications, 2017)
